Tests used:
[1] = molecular target: T1, purified human topoisomerase I (Homo sapiens, UniProt P11387); experiment: Topoisomerase I activity (in vitro): compound-induced, topoisomerase I-mediated single strand breaks in PM2 DNA; assay type: biochemical; conditions: 30 minutes at 37° C., agarose gel densitometry, read-out: EC50 (median effective concentration for inducing topoisomerase I-mediated single strand breaks in DNA)
T1 construct: purchased Topogen
T1 sequence (P11387 1-765): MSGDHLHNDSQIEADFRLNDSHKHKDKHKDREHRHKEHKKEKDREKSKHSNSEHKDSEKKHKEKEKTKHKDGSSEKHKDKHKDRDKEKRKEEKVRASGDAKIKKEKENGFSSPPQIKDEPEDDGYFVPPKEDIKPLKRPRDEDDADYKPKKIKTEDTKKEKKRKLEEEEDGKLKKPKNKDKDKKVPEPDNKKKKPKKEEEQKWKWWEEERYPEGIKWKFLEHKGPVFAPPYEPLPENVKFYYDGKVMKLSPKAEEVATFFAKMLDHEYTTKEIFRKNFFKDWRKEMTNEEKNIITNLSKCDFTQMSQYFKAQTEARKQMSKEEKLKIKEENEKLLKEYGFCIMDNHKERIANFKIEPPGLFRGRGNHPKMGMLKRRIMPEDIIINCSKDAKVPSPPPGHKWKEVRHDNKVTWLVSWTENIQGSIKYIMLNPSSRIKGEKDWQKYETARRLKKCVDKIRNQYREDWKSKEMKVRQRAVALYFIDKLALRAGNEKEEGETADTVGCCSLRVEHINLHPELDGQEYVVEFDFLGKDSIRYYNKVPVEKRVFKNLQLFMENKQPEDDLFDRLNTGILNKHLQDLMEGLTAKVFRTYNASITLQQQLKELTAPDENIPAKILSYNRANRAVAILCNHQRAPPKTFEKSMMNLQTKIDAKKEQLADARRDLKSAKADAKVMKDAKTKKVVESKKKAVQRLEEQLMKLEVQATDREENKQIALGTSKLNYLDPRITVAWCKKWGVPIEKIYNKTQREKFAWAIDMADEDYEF
Procedure: Topoisomerase I Activity (In Vitro)
Topoisomerase I activity was measured as described below: The procedure for assaying compound-induced, topoisomerase I-mediated single strand breaks in DNA was essentially that described by Hsiang, et al., (J. Biol Chem. 1985, 260, 14873-14878). Samples dissolved in 100% DMSO as either 10 μM or 10 mg/ml solutions, unless otherwise stated, were diluted in Tris-EDTA buffer. Marine bacteriophage PM2 DNA (Boehringer Mannheim) was also diluted in Tris-EDTA buffer to a concentration of 0.02 μg/μl. Different dilutions of the compound being evaluated were mixed with diluted DNA and this mixture was added to 1000 unit (one unit of enzyme activity is defined as the amount capable of relaxing 100 ng of supercoiled DNA in approximately 30 minutes at 37° C.) aliquots of purified human topoisomerase I (Topogen) in 2× reaction buffer to start the reaction. The compound-DNA-enzyme mixture was incubated for 30 minutes at 37° C. before stopping the reaction with warm stop buffer containing sodium dodecyl sulfate and proteinase K (Sigma). These mixtures were allowed to incubate at 37° C. for another 10 minutes, at which time the mixtures were removed from the waterbath and extracted with a 24:1 mixture of chloroform/isoamyl alcohol. Following centrifugation, aliquots of the aqueous phases were placed in wells of a 0.9% agarose (SeaKem) gel in Tris-borate buffer containing 0.5 μg/ml of ethidium bromide and subjected to electrophoresis for 15 hours to separate the different topological isomers and nicked and broken DNAs. After destaining the gel in water, the ethidium bromide stained DNA reaction products were visualized by exposing the gel to UV irradiation. Negatives of the photographs of the irradiated gels were scanned with a densitometer and areas under the peaks were calculated in order to obtain percent single strand DNA break formation for each sample. A median effective concentration (EC50) was obtained for each compound by interpolation between points of the resulting dose-effect curve which defines the potency of the compound for its effect in inducing topoisomerase I-mediated single strand breaks in DNA.
The topoisomerase I activity for certain compounds of the present invention is shown below in Table I.

[2] = test system: murine P388 cell line; experiment: In vitro cell-based cytotoxicity: proliferation inhibition, XTT tetrazolium assay; conditions: Mus musculus; P388 cells, 72 h at 37° C., XTT absorbance at 450 nm; read-out: IC50 (drug concentration required to inhibit cell proliferation to 50% of untreated control cells)
Procedure: In Vitro Cell-Based Cytotoxicity Activity
The proliferation inhibition activity against murine P388 cell line was measured as follows. Evaluation of a soluble tetrazolium/formazan assay for cell growth and drug sensitivity in culture, using human and other tumor cell lines, was done according to the procedure described in Cancer Res. 1988, 48, 4827-4833. Cells were plated at 4000 cells/well in 96 well microtiter plates and 24 h later drugs were added and serially diluted. The cells were incubated at 37° C. for 72 h, at which time a tetrazolium dye, XTT, containing phenazine methosulfate was added. A dehydrogenase enzyme in live cells reduced the XTT to a form that absorbs light at 450 nm, which could be quantitated spectrophotometrically. The greater the absorbance the greater the number of live cells. The results are expressed as an IC50, which is the drug concentration required to inhibit cell proliferation (i.e., absorbance at 450 nm) to 50% of that of untreated control cells.

SMILES: O=C1NC(=O)c2c1c1c3ccc(F)cc3n3c1c1c2c2ccc(F)cc2n1[C@@H]1O[C@H](CO)[C@@H](O)[C@H](O)[C@@H]13 [Example 24, 2,10-Difluoro-12,13-[1,2-β-D-glucopyranosyl]-6,7,12,13-tetrahydro(5H)-indolo-[2,3-a]pyrrolo[3,4-c]carbazole-5,7-dione]
- EC50 [1]: > 100 µM
- IC50 [2]: 1.15 µM
- melting point: > 300 °C

From patent US6677450B2, “Topoisomerase inhibitors” (Bristol-Myers Squibb Company, priority 2000, dated 2004)
